Assay results as given in US11717508B2, “Compounds, compositions, and methods for inhibiting bacterial growth” (priority 2016, dated 2023).

System: DosRST regulon
Assay type: cell-based
[1] = Rv0569, WT Mtb treated with HC102A compared to DMSO
[2] = Rv0570 nrdZ, WT Mtb treated with HC102A compared to DMSO
[3] = Rv0571c, WT Mtb treated with HC102A compared to DMSO
[4] = Rv0572c, WT Mtb treated with HC102A compared to DMSO
[5] = Rv0573c, WT Mtb treated with HC102A compared to DMSO
[6] = Rv0574c, WT Mtb treated with HC102A compared to DMSO
[7] = Rv1733c, WT Mtb treated with HC102A compared to DMSO
[8] = Rv1735c, WT Mtb treated with HC102A compared to DMSO
[9] = Rv1736c narX, WT Mtb treated with HC102A compared to DMSO
[10] = Rv1737c narK2, WT Mtb treated with HC102A compared to DMSO
[11] = Rv1738, WT Mtb treated with HC102A compared to DMSO
[12] = Rv1790 PPE, WT Mtb treated with HC102A compared to DMSO
[13] = Rv1812c, WT Mtb treated with HC102A compared to DMSO
[14] = Rv1813c, WT Mtb treated with HC102A compared to DMSO
[15] = Rv1834, WT Mtb treated with HC102A compared to DMSO
[16] = Rv1996, WT Mtb treated with HC102A compared to DMSO
[17] = Rv1997 ctpF, WT Mtb treated with HC102A compared to DMSO
[18] = Rv2003c, WT Mtb treated with HC102A compared to DMSO
[19] = Rv2004c, WT Mtb treated with HC102A compared to DMSO
[20] = Rv2005c, WT Mtb treated with HC102A compared to DMSO
[21] = Rv2006 otsB, WT Mtb treated with HC102A compared to DMSO
[22] = Rv2007c fdxA, WT Mtb treated with HC102A compared to DMSO
[23] = Rv2027c, WT Mtb treated with HC102A compared to DMSO
[24] = Rv2028c, WT Mtb treated with HC102A compared to DMSO
[25] = Rv2030c, WT Mtb treated with HC102A compared to DMSO
[26] = Rv2032, WT Mtb treated with HC102A compared to DMSO
[27] = Rv2623, WT Mtb treated with HC102A compared to DMSO
[28] = Rv2624c, WT Mtb treated with HC102A compared to DMSO

## C[C@@H]1CC(C)(C)C[C@]2(C1)NC(=O)NC2=O (racemic) [HC102A, 7,7,9-trimethyl-1,3-diazaspiro[4.5]decane-2,4-dione]
40 μM, 6 days, >2-fold, p<0.05
  genes downregulated by compound (total): 55 genes
CDC1551, 40 μM, 6 days
  downregulation of tgs1 gene (transcriptional profiling): ~20 fold
[1]
  Fold change, gene MT0595: 0.1089
  log2 Fold change, gene MT0595: −3.199
Rv0569, WT Mtb treated with HC102A, replicate 1
  Counts per million (CPM) WT_HC102A1, gene MT0595: 21.38 CPM
Rv0569, WT Mtb treated with HC102A, replicate 2
  Counts per million (CPM) WT_HC102A2, gene MT0595: 25.92 CPM
[2]
  Fold change, gene MT0596: 0.04533
  log2 Fold change, gene MT0596: −4.464
Rv0570 nrdZ, WT Mtb treated with HC102A, replicate 1
  Counts per million (CPM) WT_HC102A1, gene MT0596: 102.7 CPM
Rv0570 nrdZ, WT Mtb treated with HC102A, replicate 2
  Counts per million (CPM) WT_HC102A2, gene MT0596: 94.1 CPM
[3]
  Fold change, gene MT0597: 0.2805
  log2 Fold change, gene MT0597: −1.834
Rv0571c, WT Mtb treated with HC102A, replicate 1
  Counts per million (CPM) WT_HC102A1, gene MT0597: 94.1998 CPM
Rv0571c, WT Mtb treated with HC102A, replicate 2
  Counts per million (CPM) WT_HC102A2, gene MT0597: 81.32 CPM
[4]
  Fold change, gene MT0599: 0.2441
  log2 Fold change, gene MT0599: −2.034
Rv0572c, WT Mtb treated with HC102A, replicate 1
  Counts per million (CPM) WT_HC102A1, gene MT0599: 127.4 CPM
Rv0572c, WT Mtb treated with HC102A, replicate 2
  Counts per million (CPM) WT_HC102A2, gene MT0599: 180.6 CPM
[5]
  Fold change, gene MT0601: 0.1932
  log2 Fold change, gene MT0601: −2.372
Rv0573c, WT Mtb treated with HC102A, replicate 1
  Counts per million (CPM) WT_HC102A1, gene MT0601: 13.82 CPM
Rv0573c, WT Mtb treated with HC102A, replicate 2
  Counts per million (CPM) WT_HC102A2, gene MT0601: 19.29 CPM
[6]
  Fold change, gene MT0602: 0.1416
  log2 Fold change, gene MT0602: −2.82
Rv0574c, WT Mtb treated with HC102A, replicate 1
  Counts per million (CPM) WT_HC102A1, gene MT0602: 45.11 CPM
Rv0574c, WT Mtb treated with HC102A, replicate 2
  Counts per million (CPM) WT_HC102A2, gene MT0602: 51.54 CPM
[7]
  Fold change, gene MT1774: 0.07551
  log2 Fold change, gene MT1774: −3.727
Rv1733c, WT Mtb treated with HC102A, replicate 1
  Counts per million (CPM) WT_HC102A1, gene MT1774: 109.6 CPM
Rv1733c, WT Mtb treated with HC102A, replicate 2
  Counts per million (CPM) WT_HC102A2, gene MT1774: 116 CPM
[8]
  Fold change, gene MT1776: 0.2742
  log2 Fold change, gene MT1776: −1.867
Rv1735c, WT Mtb treated with HC102A, replicate 1
  Counts per million (CPM) WT_HC102A1, gene MT1776: 5.202 CPM
Rv1735c, WT Mtb treated with HC102A, replicate 2
  Counts per million (CPM) WT_HC102A2, gene MT1776: 4.163 CPM
[9]
  Fold change, gene MT1778: 0.05545
  log2 Fold change, gene MT1778: −4.173
Rv1736c narX, WT Mtb treated with HC102A, replicate 1
  Counts per million (CPM) WT_HC102A1, gene MT1778: 234.5 CPM
Rv1736c narX, WT Mtb treated with HC102A, replicate 2
  Counts per million (CPM) WT_HC102A2, gene MT1778: 246.1 CPM
[10]
  Fold change, gene MT1779: 0.04997
  log2 Fold change, gene MT1779: −4.323
Rv1737c narK2, WT Mtb treated with HC102A, replicate 1
  Counts per million (CPM) WT_HC102A1, gene MT1779: 72.42 CPM
Rv1737c narK2, WT Mtb treated with HC102A, replicate 2
  Counts per million (CPM) WT_HC102A2, gene MT1779: 91.94 CPM
[11]
  Fold change, gene MT1780: 0.1174
  log2 Fold change, gene MT1780: −3.091
Rv1738, WT Mtb treated with HC102A, replicate 1
  Counts per million (CPM) WT_HC102A1, gene MT1780: 337.8 CPM
Rv1738, WT Mtb treated with HC102A, replicate 2
  Counts per million (CPM) WT_HC102A2, gene MT1780: 628.9 CPM
[12]
  Fold change, gene MT1839: 0.466
  log2 Fold change, gene MT1839: −1.102
Rv1790 PPE, WT Mtb treated with HC102A, replicate 1
  Counts per million (CPM) WT_HC102A1, gene MT1839: 29.83 CPM
Rv1790 PPE, WT Mtb treated with HC102A, replicate 2
  Counts per million (CPM) WT_HC102A2, gene MT1839: 18.94 CPM
[13]
  Fold change, gene MT1860: 0.3171
  log2 Fold change, gene MT1860: −1.657
Rv1812c, WT Mtb treated with HC102A, replicate 1
  Counts per million (CPM) WT_HC102A1, gene MT1860: 54.94 CPM
Rv1812c, WT Mtb treated with HC102A, replicate 2
  Counts per million (CPM) WT_HC102A2, gene MT1860: 65.84 CPM
[14]
  Fold change, gene MT1861: 0.06232
  log2 Fold change, gene MT1861: −4.004
Rv1813c, WT Mtb treated with HC102A, replicate 1
  Counts per million (CPM) WT_HC102A1, gene MT1861: 121.3 CPM
Rv1813c, WT Mtb treated with HC102A, replicate 2
  Counts per million (CPM) WT_HC102A2, gene MT1861: 147.2 CPM
[15]
  Fold change, gene MT1882: 0.4723
  log2 Fold change, gene MT1882: −1.082
Rv1834, WT Mtb treated with HC102A, replicate 1
  Counts per million (CPM) WT_HC102A1, gene MT1882: 37.79 CPM
Rv1834, WT Mtb treated with HC102A, replicate 2
  Counts per million (CPM) WT_HC102A2, gene MT1882: 31.49 CPM
[16]
  Fold change, gene MT2052: 0.01797
  log2 Fold change, gene MT2052: −5.798
Rv1996, WT Mtb treated with HC102A, replicate 1
  Counts per million (CPM) WT_HC102A1, gene MT2052: 561.6 CPM
Rv1996, WT Mtb treated with HC102A, replicate 2
  Counts per million (CPM) WT_HC102A2, gene MT2052: 277.3 CPM
[17]
  Fold change, gene MT2053: 0.04882
  log2 Fold change, gene MT2053: −4.356
Rv1997 ctpF, WT Mtb treated with HC102A, replicate 1
  Counts per million (CPM) WT_HC102A1, gene MT2053: 105.1 CPM
Rv1997 ctpF, WT Mtb treated with HC102A, replicate 2
  Counts per million (CPM) WT_HC102A2, gene MT2053: 117.4 CPM
[18]
  Fold change, gene MT2059: 0.2227
  log2 Fold change, gene MT2059: −2.167
Rv2003c, WT Mtb treated with HC102A, replicate 1
  Counts per million (CPM) WT_HC102A1, gene MT2059: 203.6 CPM
Rv2003c, WT Mtb treated with HC102A, replicate 2
  Counts per million (CPM) WT_HC102A2, gene MT2059: 97.15 CPM
[19]
  Fold change, gene MT2060: 0.2044
  log2 Fold change, gene MT2060: −2.291
Rv2004c, WT Mtb treated with HC102A, replicate 1
  Counts per million (CPM) WT_HC102A1, gene MT2060: 661.2 CPM
Rv2004c, WT Mtb treated with HC102A, replicate 2
  Counts per million (CPM) WT_HC102A2, gene MT2060: 393.9 CPM
[20]
  Fold change, gene MT2061: 0.1302
  log2 Fold change, gene MT2061: −2.942
Rv2005c, WT Mtb treated with HC102A, replicate 1
  Counts per million (CPM) WT_HC102A1, gene MT2061: 308.4 CPM
Rv2005c, WT Mtb treated with HC102A, replicate 2
  Counts per million (CPM) WT_HC102A2, gene MT2061: 262.8 CPM
[21]
  Fold change, gene MT2062: 0.2411
  log2 Fold change, gene MT2062: −2.052
Rv2006 otsB, WT Mtb treated with HC102A, replicate 1
  Counts per million (CPM) WT_HC102A1, gene MT2062: 140.8 CPM
Rv2006 otsB, WT Mtb treated with HC102A, replicate 2
  Counts per million (CPM) WT_HC102A2, gene MT2062: 181.1 CPM
[22]
  Fold change, gene MT2063: 0.2221
  log2 Fold change, gene MT2063: −2.171
Rv2007c fdxA, WT Mtb treated with HC102A, replicate 1
  Counts per million (CPM) WT_HC102A1, gene MT2063: 1,505.73 CPM
Rv2007c fdxA, WT Mtb treated with HC102A, replicate 2
  Counts per million (CPM) WT_HC102A2, gene MT2063: 2,151.57 CPM
[23]
  Fold change, gene MT2086: 0.3538
  log2 Fold change, gene MT2086: −1.499
Rv2027c, WT Mtb treated with HC102A, replicate 1
  Counts per million (CPM) WT_HC102A1, gene MT2086: 90.79 CPM
Rv2027c, WT Mtb treated with HC102A, replicate 2
  Counts per million (CPM) WT_HC102A2, gene MT2086: 84.31 CPM
[24]
  Fold change, gene MT2087: 0.08322
  log2 Fold change, gene MT2087: −3.587
Rv2028c, WT Mtb treated with HC102A, replicate 1
  Counts per million (CPM) WT_HC102A1, gene MT2087: 62.1 CPM
Rv2028c, WT Mtb treated with HC102A, replicate 2
  Counts per million (CPM) WT_HC102A2, gene MT2087: 56.17 CPM
[25]
  Fold change, gene MT2089: 0.06954
  log2 Fold change, gene MT2089: −3.846
Rv2030c, WT Mtb treated with HC102A, replicate 1
  Counts per million (CPM) WT_HC102A1, gene MT2089: 1,125.52 CPM
Rv2030c, WT Mtb treated with HC102A, replicate 2
  Counts per million (CPM) WT_HC102A2, gene MT2089: 784.7 CPM
[26]
  Fold change, gene MT2091: 0.06482
  log2 Fold change, gene MT2091: −3.947
Rv2032, WT Mtb treated with HC102A, replicate 1
  Counts per million (CPM) WT_HC102A1, gene MT2091: 270.6 CPM
Rv2032, WT Mtb treated with HC102A, replicate 2
  Counts per million (CPM) WT_HC102A2, gene MT2091: 336.8 CPM
[27]
  Fold change, gene MT2698: 0.02424
  log2 Fold change, gene MT2698: −5.366
Rv2623, WT Mtb treated with HC102A, replicate 1
  Counts per million (CPM) WT_HC102A1, gene MT2698: 903.6 CPM
Rv2623, WT Mtb treated with HC102A, replicate 2
  Counts per million (CPM) WT_HC102A2, gene MT2698: 611.4 CPM
[28]
  Fold change, gene MT2699: 0.052
  log2 Fold change, gene MT2699: −4.265
Rv2624c, WT Mtb treated with HC102A, replicate 1
  Counts per million (CPM) WT_HC102A1, gene MT2699: 106.2 CPM
Rv2624c, WT Mtb treated with HC102A, replicate 2
  Counts per million (CPM) WT_HC102A2, gene MT2699: 108.4 CPM
Rv2625c, WT Mtb treated with HC102A compared to DMSO
  Fold change, gene MT2700: 0.02819
